The structures appear in SMILES notation.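 Five concentrations, 48 hours, 96-well plates. The concentration for 50% growth inhibition is given as GI50.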 The source made the active and inactive calls. No stated cut-off is given here; in the data, active = GI50 up to about 1.1 µM and inactive = higher.

Among the test systems are ACHN; SF-268; KM12; UO-31; HCC 2998; LOX IMVI; OVCAR-4; OVCAR-5; HCT-116; OVCAR-8; SK-MEL-5; SF-295; SK-MEL-2; A498; SK-MEL-28; HCT-15; K562; Malme-3M; SNB-19; NCI/ADR-RES.
Common to all, as to experiment: inhibition of tumour cell growth, NCI panel, 48 h

Take `Cc1cc2nc(-c3c(F)cccc3F)n(Cc3c(F)cccc3F)c2cc1C`: the GI50 was 14.3 µM (inactive) in the test with ACHN; 18.8 µM (inactive) in the test with SF-268; 14.8 µM (inactive) in the test on KM12; 11.1 µM (inactive) with UO-31; 9.71 µM (inactive) in the test with HCC 2998; 14.3 µM (inactive) in the test with LOX IMVI. For the same compound, the GI50 in the test on OVCAR-4 was 15 µM (inactive); in the test on OVCAR-5, 16.6 µM (inactive); in the test with HCT-116 it was 12.1 µM (inactive); in the test on OVCAR-8, 13.5 µM (inactive); with SK-MEL-5 it was 13.6 µM (inactive); in the test with SF-295, 13.4 µM (inactive). Further, the GI50 with SK-MEL-2 is 15.8 µM (inactive); in the test on A498 it was 20.1 µM (inactive); in the test on SK-MEL-28 it was 16.6 µM (inactive); in the test with HCT-15 it was 14.4 µM; with K562, 11 µM (inactive); in the test on Malme-3M, 27.9 µM (inactive). For the same compound, the GI50 is 19.5 µM (inactive) with SNB-19 and 18.5 µM (inactive) with NCI/ADR-RES.

Regarding `O=c1c2ccccc2c2ccccc2c(=O)n1Cc1ccc2c(c1)OCO2`, the GI50 in the test on ACHN was 45.4 µM (inactive); with SF-268, 59.7 µM (inactive); in the test on KM12, 19.5 µM (inactive); in the test on UO-31 it was 49.5 µM (inactive); in the test with HCC 2998 it was 25.1 µM (inactive); in the test with LOX IMVI, 40 µM (inactive). The GI50 in the test with OVCAR-4 was > 67.3 µM (inactive); with OVCAR-5 it was 34 µM (inactive); in the test with HCT-116 it was 19.1 µM (inactive); in the test on OVCAR-8 it was 45.7 µM (inactive); with SK-MEL-5, 20.3 µM (inactive); in the test on SF-295 it was 35.4 µM (inactive). In addition, the GI50 is 39.7 µM (inactive) in the test with SK-MEL-2; > 70.5 µM (inactive) in the test with A498; 56.6 µM (inactive) with SK-MEL-28; 17 µM in the test with HCT-15; 7.45 µM (inactive) with K562; 67.9 µM (inactive) in the test with Malme-3M. The GI50 was 52.1 µM (inactive) in the test with SNB-19 and 24.9 µM (inactive) in the test on NCI/ADR-RES.

Consider `CC(C)=CCC[C@@H](C)C1=C(O)C(=O)C(C)=C(Nc2ccccc2)C1=O`, for which the GI50 is 13.5 µM (inactive) with ACHN; 19.8 µM (inactive) with SF-268; 22.8 µM (inactive) in the test on KM12; 14.5 µM (inactive) with UO-31; 45.1 µM (inactive) in the test with HCC 2998; 20.6 µM (inactive) in the test with LOX IMVI. Besides, the GI50 was 19.3 µM (inactive) in the test on OVCAR-4; 52.4 µM (inactive) in the test on OVCAR-5; 18.1 µM (inactive) in the test on HCT-116; 9.18 µM (inactive) in the test on OVCAR-8; 17.6 µM (inactive) in the test on SK-MEL-5; 5.77 µM (inactive) in the test on SF-295. Besides, the GI50 is 20.2 µM (inactive) in the test on SK-MEL-2; 20 µM (inactive) in the test on A498; 43 µM (inactive) in the test on SK-MEL-28; 7.5 µM with HCT-15; 13.2 µM (inactive) with K562; 17.8 µM (inactive) in the test on Malme-3M. The GI50 with SNB-19 was 31.4 µM (inactive); in the test with NCI/ADR-RES, 4.03 µM (inactive).

`CCOC(=O)CCC(NC(=O)OCc1ccccc1)C(=O)NNC(=O)OC(C)(C)C` (stereo not given): the GI50 with ACHN, with SF-268, in the test with KM12, in the test on UO-31, in the test with HCC 2998 and with LOX IMVI was > 100 µM (inactive) each time. Also, the GI50 with OVCAR-4, with OVCAR-5, in the test on HCT-116, with OVCAR-8, in the test on SK-MEL-5 and with SF-295 was > 100 µM (inactive) throughout. For the same compound, the GI50 in the test on SK-MEL-2 was > 100 µM (inactive); with A498 it was > 100 µM (inactive); in the test with SK-MEL-28, > 100 µM (inactive); with HCT-15, above 100 µM; with K562, > 100 µM (inactive); in the test on Malme-3M, > 100 µM (inactive). In addition, the GI50 with SNB-19 and in the test on NCI/ADR-RES was > 100 µM (inactive) throughout.

Turning to `CCOC(=O)C(=O)N/N=C1\C(=O)Nc2ccccc21`, the GI50 with ACHN, in the test with SF-268, in the test on KM12, in the test with UO-31, in the test with HCC 2998 and in the test on LOX IMVI was > 100 µM (inactive) each time. In addition, the GI50 in the test on OVCAR-4, in the test with OVCAR-5, in the test with HCT-116, with OVCAR-8, in the test with SK-MEL-5 and in the test with SF-295 was > 100 µM (inactive) throughout. Besides, the GI50 in the test on SK-MEL-2 was > 100 µM (inactive); with A498, > 100 µM (inactive); in the test with SK-MEL-28 it was > 100 µM (inactive); in the test with HCT-15, above 100 µM; in the test on K562, > 100 µM (inactive); with Malme-3M, > 100 µM (inactive). Moreover, the GI50 in the test with SNB-19 and with NCI/ADR-RES was > 100 µM (inactive) throughout.

Regarding `COc1cc2c(OC)c3cc(C)oc(=O)c3c(O)c2c(O)c1-c1c(OC)cc2c(OC)c3cc(C)oc(=O)c3c(O)c2c1O`, the GI50 in the test with ACHN was 16.5 µM (inactive); in the test on SF-268, 21.5 µM (inactive); in the test with KM12, 19.1 µM (inactive); with UO-31, 18.5 µM (inactive); in the test on HCC 2998, 18.9 µM (inactive); with LOX IMVI it was 19.6 µM (inactive). The GI50 with OVCAR-4 was 39.1 µM (inactive); with OVCAR-5, 19.7 µM (inactive); in the test on HCT-116 it was 14.9 µM (inactive); in the test on OVCAR-8, 13 µM (inactive); in the test on SK-MEL-5 it was 16.7 µM (inactive); in the test on SF-295 it was 18.6 µM (inactive). Further, the GI50 in the test on SK-MEL-2 was 17.5 µM (inactive); in the test with A498 it was 24.2 µM (inactive); in the test with SK-MEL-28 it was 21.2 µM (inactive); in the test on HCT-15, 18.5 µM; with K562, 16.4 µM (inactive); in the test on Malme-3M it was 17.7 µM (inactive). Further, the figures for the GI50 with SNB-19 and in the test with NCI/ADR-RES were 25.2 µM (inactive) and 17.1 µM (inactive), respectively.

`O=c1cc(-c2ccccc2F)[nH]c2cc3c(cc12)OCO3`: the GI50 in the test on ACHN was 0.149 µM (active); in the test on SF-268, 0.504 µM (active); in the test with KM12 it was 0.0344 µM (active); in the test with UO-31 it was 0.711 µM (active); in the test on HCC 2998 it was 0.107 µM (active); in the test with LOX IMVI, 0.119 µM (active). Also, the GI50 was > 24.6 µM (inactive) with OVCAR-4; 1.31 µM (inactive) with OVCAR-5; 0.0489 µM (active) in the test with HCT-116; 0.265 µM (active) with OVCAR-8; 0.0211 µM (active) in the test with SK-MEL-5; 0.0993 µM (active) with SF-295. Moreover, the GI50 in the test with SK-MEL-2 is 0.1 µM (active); in the test on A498, 0.0724 µM (active); in the test with SK-MEL-28, > 32.9 µM (inactive); in the test with HCT-15, 0.0417 µM; with K562, 0.0628 µM (active); in the test with Malme-3M, 0.053 µM (active). Also, the results for the GI50 in the test with SNB-19 and in the test with NCI/ADR-RES were 0.202 µM (active) and 0.035 µM (active), respectively.

For the origin of these results see ChEMBL document CHEMBL1201862, “PubChem BioAssay data set” (2004).
